Where two headings read alike, the source gives them in different places.
What was measured:
[1] = tested on: Namalwa (Burkitt's lymphoma); experiment: in vitro cytotoxicity assay, Namalwa cells; assay type: cell-based, human; conditions: free cytotoxic compound
Source text: (§1) Following cell lines were used for the study: KB (cervical carcinoma, ATCC), NCI-H2110 (Non Small Cell Lung Carcinoma, ATCC), Namalwa (Burkitt's lymphoma, ATCC), Ishikawa (endometrial adenocarcinoma, ECACC), EOL-1 (Acute Myeloid Leukemia, ECACC), JEG-3 (choriocarcinoma, ATCC), JHOS-4 (ovarian adenocarcinoma, Riken Bioresource Center), OV-90 (ovarian adenocarcinoma, ATCC), SKOV-6 (ovarian adenocarcinoma, Memorial Sloan Kettering Cancer Center), Igrov-1 (ovarian adenocarcinoma, National Cancer Institute), KB-GRC1-MDR (cervical carcinoma/Pgp positive, gift from Dr. Roninson at the Ordway Research Institute) and T47D (breast epithelial cancer, ATCC). The cells were maintained and plated for the cytotox experiments in media recommended by the manufacturers. Cells were plated in the 96-well flat bottom plates at a seeding density of 800 cells per well (Ishikawa, JEG-3 or SK-OV-6), 1,000 cells per well (KB, Namalwa, EOL-1, OV-90 and Igrov-1) or 2,000 cell per well (NCI H2110, JHOS-4 and T47D). Conjugates or free drug compounds were diluted in RPMI-1640 (Life Technologies) supplemented with heat-inactivated 100 FBS (Life Technologies) and 0.1 mg/ml gentamycin (Life Technologies), and added to the plated cells. To determine specificity of cytotoxic activity of the conjugates an excess of unconjugated antibody was added to a separate set of diluted conjugates (+block samples, IC50 table). The plates were incubated at 37° C., 500 CO2 for either 4 days (JHOS-4 and T47D cells) or 5 days (KB, NCI H2110, Ishikawa, EOL-1, JEG-3, OV-90, SK-OV-6, NC-H441 and Igrov-1 cells). Alamar blue assay (Invitrogen) was used to determine viability of JHOS-4 and T47D cells, and WST-8 assay (Donjindo Molecular Technologies, Inc.) was applied for viability of KB, NCI H2110, Namalwa, Ishikawa, EOL-1, JEG-4, OV-90, SK-OV-6, NCI-H4441 and Igrov-1 cells. The assays were performed in accordance with the manufacturer's protocols. Killing curves and IC50 were generated using a sigmoidal dose-response nonlinear regression curve fit (GraphPad Software Inc.).

[2] = tested on: KB (cervical carcinoma); experiment: in vitro cytotoxicity assay, KB cells; assay type: cell-based, human; conditions: free cytotoxic compound, 5 days
Source text: as §1

[3] = tested on: Ishikawa (endometrial adenocarcinoma); experiment: in vitro cytotoxicity assay, Ishikawa cells; assay type: cell-based; conditions: free cytotoxic compound, 5 days
Source text: as §1

[4] = tested on: NCI-H2110 (Non Small Cell Lung Carcinoma); experiment: in vitro cytotoxicity assay, NCI-H2110 cells; assay type: cell-based; conditions: free cytotoxic compound, 5 days
Source text: as §1

[5] = tested on: KB-GRC1-MDR (cervical carcinoma/Pgp positive); experiment: cells; conditions: read-out: IC50 KB-MDR
Source text: Following cell lines were used for the study: KB (cervical carcinoma, ATCC), NCI-H2110 (Non Small Cell Lung Carcinoma, ATCC), Namalwa (Burkitt's lymphoma, ATCC), Ishikawa (endometrial adenocarcinoma, ECACC), EOL-1 (Acute Myeloid Leukemia, ECACC), JEG-3 (choriocarcinoma, ATCC), JHOS-4 (ovarian adenocarcinoma, Riken Bioresource Center), OV-90 (ovarian adenocarcinoma, ATCC), SKOV-6 (ovarian adenocarcinoma, Memorial Sloan Kettering Cancer Center), Igrov-1 (ovarian adenocarcinoma, National Cancer Institute), KB-GRC1-MDR (cervical carcinoma/Pgp positive, gift from Dr. Roninson at the Ordway Research Institute) and T47D (breast epithelial cancer, ATCC). The cells were maintained and plated for the cytotox experiments in media recommended by the manufacturers. Cells were plated in the 96-well flat bottom plates at a seeding density of 800 cells per well (Ishikawa, JEG-3 or SK-OV-6), 1,000 cells per well (KB, Namalwa, EOL-1, OV-90 and Igrov-1) or 2,000 cell per well (NCI H2110, JHOS-4 and T47D). […] To determine specificity of cytotoxic activity of the conjugates an excess of unconjugated antibody was added to a separate set of diluted conjugates (+block samples, IC50 table). The plates were incubated at 37° C., […] for either 4 days (JHOS-4 and T47D cells) or 5 days (KB, NCI H2110, Ishikawa, EOL-1, JEG-3, OV-90, SK-OV-6, NC-H441 and Igrov-1 cells). Alamar blue assay (Invitrogen) was used to determine viability of JHOS-4 and T47D cells, and WST-8 assay (Donjindo Molecular Technologies, Inc.) was applied for viability of KB, NCI H2110, Namalwa, Ishikawa, EOL-1, […], OV-90, SK-OV-6, […] and Igrov-1 cells. The assays were performed in accordance with the manufacturer's protocols. Killing curves and IC50 were generated using a sigmoidal dose-response nonlinear regression curve fit (GraphPad Software Inc.).

[6] = tested on: EOL-1 (Acute Myeloid Leukemia); experiment: in vitro cytotoxicity assay, EOL-1 cells; assay type: cell-based; conditions: Homo sapiens, EOL1, 120 h; free cytotoxic compound; 5 days
Source text: as §1

| SMILES | IC50 ([1]; Homo sapiens) [pM] | IC50 [2] [pM] | IC50 [3] [pM] | IC50 [4] [pM] | IC50 [1] [pM] | IC50 ([5]; free cytotoxic compound) [pM] | IC50 ([2]; Homo sapiens, KB, 120 h) [pM] | IC50 ([3]; Homo sapiens, Ishikawa, 120 h) [pM] | IC50 [6] [pM] | IC50 ([4]; NCI-H2110, 120 h) [pM] | IC50 [5] [pM] |
| --- | --- | --- | --- | --- | --- | --- | --- | --- | --- | --- | --- |
| COC(=O)c1cc2cc(NC(=O)c3cc(NC(=O)CCCOc4cc5c(cc4OC)C(=O)N4c6ccccc6C[C@H]4C=N5)cn3C)ccc2s1 [Compound 7] | 20 |  |  |  |  |  |  |  |  |  |  |
| COc1cc2c(cc1OCCCC(=O)Nc1cn(C)c(C(=O)NCc3cccc(C(=O)NCC(C)(C)S(C)=S)c3)n1)N=C[C@@H]1Cc3ccccc3N1C2=O (stereo partly drawn) [Compound 121] |  | 2000 | 2000 | 2000 | 600 | > 5000 |  |  |  |  |  |
| COc1cc2c(cc1OCCCC(=O)Nc1cc(C(=O)Nc3ccc(-c4cc(C(=O)NCC(C)(C)SSC)n(C)c4)cc3)n(C)c1)N=C[C@@H]1Cc3ccccc3N1C2=O [Compound 85] | 30 |  |  |  |  |  | 10 | 100 | 8 | 100 | > 5000 |
| COc1cc2c(cc1OCCCC(=O)Nc1cn(C)c(C(=O)Nc3ccc(-c4cc(C(=O)NCC(C)(C)SSC)n(C)c4)cc3)n1)N=C[C@@H]1Cc3ccccc3N1C2=O [Compound 125] | 10 |  |  |  |  |  | 40 | 50 | 4 | 60 | 900 |
| COc1cc2c(cc1OCCCC(=O)Nc1cn(C)c(C(=O)Nc3ccc(-c4csc(C(=O)NCC(C)(C)SSC)n4)cc3)n1)N=C[C@@H]1Cc3ccccc3N1C2=O [Compound 113] | 70 |  |  |  |  |  | 200 | 200 |  | 400 | 3000 |
| COC(=O)CCNC(=O)c1nc(NC(=O)c2cc3cc(NC(=O)CCCOc4cc5c(cc4OC)C(=O)N4c6ccccc6C[C@H]4C=N5)ccc3o2)cn1C [Compound 180] | 300 |  |  |  |  |  | 1000 |  |  | 2000 |  |
| COc1cc2c(cc1OCCCC(=O)Nc1cn(C)c(C(=O)Nc3ccc(N)cc3)n1)N=C[C@@H]1Cc3ccccc3N1C2=O [Compound 149] | 60 |  |  |  |  |  | 200 | 100 |  | 400 |  |
| COc1cc2c(cc1OCCCC(=O)Nc1cn(C)c(C(=O)Nc3ccc4nc(C(=O)NCC(C)(C)S(C)=S)n(C)c4c3)n1)N=C[C@@H]1Cc3ccccc3N1C2=O (stereo partly drawn) [Compound 99] |  | 500 | 700 | 1000 | 100 |  |  |  |  |  |  |
| COc1cc2c(cc1OCCCC(=O)Nc1cn(C)c(C(=O)Nc3ccc(-c4cc(C(=O)NCC(C)(C)SSC)n(C)c4)cc3)n1)N=C[C@@H]1Cc3ccccc3CN1C2=O [Compound 206] | 1 |  |  |  |  |  | 6 | 4 |  | 10 | 100 |
| COC(=O)CCNC(=O)c1cc2cc(NC(=O)c3nc(NC(=O)CCCOc4cc5c(cc4OC)C(=O)N4c6ccccc6C[C@H]4C=N5)cn3C)ccc2o1 [Compound 188] | 60 |  |  |  |  |  | 80 |  | 20 | 500 |  |
| COC(=O)CCNC(=O)c1cc2cc(NC(=O)c3cc(NC(=O)CCCOc4cc5c(cc4OC)C(=O)N4c6ccccc6C[C@H]4C=N5)cn3CCCNC(=O)OC(C)(C)C)ccc2o1 [Compound 199] | > 500 |  |  | 3000 |  |  | 1000 |  |  | 5000 |  |
| COc1cc2c(cc1OCCCC(=O)Nc1cn(C)c(C(=O)Nc3ccc(-c4cc(C(=O)NCC(C)(C)SSC)n(C)c4)cn3)n1)N=C[C@@H]1Cc3ccccc3N1C2=O [Compound 103] | 20 |  |  |  |  |  | 70 | 50 |  | 200 | 400 |
| COC(=O)CCNC(=O)c1cc2cc(NC(=O)c3cc(NC(=O)CCCOc4cc5c(cc4OC)C(=O)N4c6ccccc6C[C@H]4C=N5)cn3C)ccc2s1 [Compound 9] | 30 |  |  |  |  |  | 40 | 70 | 10 | 200 |  |
| COc1cc2c(cc1OCCCC(=O)Nc1ccc(C(=O)Nc3cc(C(=O)NCC(C)(C)S(C)=S)n(C)c3)nc1)N=C[C@@H]1Cc3ccccc3N1C2=O (stereo partly drawn) [Compound 117] |  | 600 | 1000 | 2000 | 300 | > 5000 |  |  |  |  |  |
| COC(=O)CCNC(=O)c1cc2cc(NC(=O)c3nc(NC(=O)CCCOc4cc5c(cc4OC)C(=O)N4c6ccccc6C[C@H]4C=N5)cn3C)ccc2s1 [Compound 142] | 10 |  |  |  |  |  |  |  | 6 |  |  |
| COc1cc2c(cc1OCCCC(=O)Nc1ccc(-c3cc(C(=O)NCC(C)(C)S)n(C)c3)cc1)NC(S(=O)(=O)O)[C@@H]1Cc3ccccc3N1C2=O (stereo partly drawn) [Compound 30] | 700 |  |  |  |  |  |  |  | 100 |  |  |
| COc1cc2c(cc1OCCCC(=O)Nc1nc(C)c(C(=O)Nc3ccc4sc(C(=O)NCC(C)(C)S(C)=S)cc4c3)s1)N=C[C@@H]1Cc3ccccc3N1C2=O (stereo partly drawn) [Compound 81] |  | > 5000 | > 5000 | > 5000 | 3000 | > 5000 |  |  |  |  |  |
| COc1cc2c(cc1OCc1cccc(CC(=O)Nc3cc(C(=O)Nc4ccc(-c5cc(C(=O)NCC(C)(C)S(C)=S)n(C)c5)cc4)n(C)c3)c1)N=C[C@@H]1Cc3ccccc3N1C2=O (stereo partly drawn) [Compound 55] |  | 9000 |  | 2000 | 4000 |  |  |  |  |  |  |
| COc1cc2c(cc1OCCCC(=O)Nc1cn(C)c(C(=O)Nc3ccc4sc(C(=O)NCC(C)(C)SSC)cc4c3)n1)N=C[C@@H]1Cc3ccccc3N1C2=O [Compound 155] | 30 |  |  |  |  |  |  |  | 9 |  |  |
| COc1cc2c(cc1OCCCC(=O)Nc1cn(C)c(C(=O)Nc3ccc4sccc4c3)n1)N=C[C@@H]1Cc3ccccc3N1C2=O [Compound 137] | 20 |  |  |  |  |  | 50 |  | 10 | 100 |  |
| COc1cc2c(cc1OCCCCNC(=O)c1cc(NC(=O)c3cc(NC(=O)CCC(C)(C)SSC)cn3C)cn1C)N=C[C@@H]1Cc3ccccc3N1C2=O [Compound 192] | 400 |  |  |  |  |  | 900 |  |  | 2000 |  |
| COc1cc2c(cc1OCCCC(=O)Nc1cc(C(=O)Nc3cc(C(=O)NCC(C)(C)SSC)n(C)c3)n(C)c1)N=C[C@@H]1Cc3ccccc3N1C2=O [Compound 132] | 90 |  |  |  |  |  | 400 |  | 40 | 2000 |  |
| COC(=O)CCNC(=O)c1cc2cc(NC(=O)c3cc(NC(=O)CCCOc4cc5c(cc4OC)C(=O)N4c6ccccc6C[C@H]4C=N5)cn3C)ccc2o1 [Compound 185] | 200 |  |  |  |  |  | 200 |  |  | 500 |  |
| COC(=O)c1cc2cc(NC(=O)c3cc(Nc4cccc(COc5cc6c(cc5OC)C(=O)N5c7ccccc7C[C@H]5C=N6)c4)cn3C)ccc2s1 [Compound 63] | 300 |  |  |  |  |  | 1000 | 600 |  | 3000 | > 5000 |
| COc1cc2c(cc1OCCCC(=O)Nc1cccc(C(=O)Nc3cc(C(=O)NCC(C)(C)SSC)n(C)c3)n1)N=C[C@@H]1Cc3ccccc3CN1C2=O [Compound 205] | 100 |  |  |  |  |  | 400 | 300 |  | 800 | 4000 |
| COC(=O)c1cc2cc(NC(=O)c3cc(NC(=O)NCCOc4cc5c(cc4OC)C(=O)N4c6ccccc6C[C@H]4C=N5)cn3C)ccc2s1 [Compound 214] |  |  |  |  |  |  | > 5000 |  |  | > 5000 |  |

From patent publication US11793885B2, “Substituted benzo[5,6][1,4]diazepino[1,2-a]indoles for the treatment of proliferative disorders” (priority 2017, dated 2023)
